Laboratory results as given in ChEMBL document CHEMBL3885861, “Open TG-GATES”.

Species on record: Rattus norvegicus
Experiment: Open TG-GATES - Regimen: Daily Repeat
Assay type: toxicity, organism-based, Sprague-Dawley
Set-up: regimen Daily Repeat, gender Male, age 6 weeks
Conditions: in vivo, po, 0 mg/kg, route gavage, dose level Control; for APTT / Bas / Eos / Fbg / Hb / Ht / Lym / MCH / MCHC / MCV / Mono / Neu / PT / Plat / RBC / Ret / WBC: tissue Blood; for KIDNEY_L / KIDNEY_R / KIDNEY_TOTAL: tissue Kidney; for LIVER: tissue Liver; for A/G / ALP / ALT / AST / BUN / CRE / Ca / Cl / DBIL / GLC / IP / K / LDH / Na / PL / RALB / TBIL / TC / TG / TP / gamma-GTP: tissue Plasma

Structure (SMILES): O=C(N[C@H](CO)[C@H](O)c1ccc([N+](=O)[O-])cc1)C(Cl)Cl [CHLORAMPHENICOL]
- TERMINAL_BW (72 h, time 3 day): 250.4 g
- APTT (72 h, time 3 day): 17.1 s
- Bas (72 h, time 3 day): 0%
- Eos (72 h, time 3 day): 1.2%
- Fbg (72 h, time 3 day): 270.4 mg/dL
- Hb (72 h, time 3 day): 13.1 g/dL
- Ht (72 h, time 3 day): 40.4%
- Lym (72 h, time 3 day): 71.6%
- MCH (72 h, time 3 day): 21.5 pg
- MCHC (72 h, time 3 day): 32.4%
- MCV (72 h, time 3 day): 66.2 fL
- Mono (72 h, time 3 day): 3%
- Neu (72 h, time 3 day): 23.8%
- PT (72 h, time 3 day): 14.4 s
- Plat (72 h, time 3 day): 109.8 x10_4/uL
- RBC (72 h, time 3 day): 611.2 x10_4/ul
- Ret (72 h, time 3 day): 7%
- WBC (72 h, time 3 day): 78.3 x10_2/uL
- KIDNEY_L (72 h, time 3 day): 1.1 g
- KIDNEY_R (72 h, time 3 day): 1.1 g
- KIDNEY_TOTAL (72 h, time 3 day): 2.2 g
- LIVER (72 h, time 3 day): 12.4 g
- A/G (72 h, time 3 day): 0.9
- ALP (72 h, time 3 day): 1702 IU/L
- ALT (72 h, time 3 day): 44 IU/L
- AST (72 h, time 3 day): 66.4 IU/L
- BUN (72 h, time 3 day): 15 mg/dL
- CRE (72 h, time 3 day): 0.2 mg/dL
- Ca (72 h, time 3 day): 11.3 mg/dL
- Cl (72 h, time 3 day): 105 meq/L
- DBIL (72 h, time 3 day): 0.022 mg/dL
- GLC (72 h, time 3 day): 186.8 mg/dL
- IP (72 h, time 3 day): 7.1 mg/dL
- K (72 h, time 3 day): 4.1 meq/L
- LDH (72 h, time 3 day): 80.8 IU/L
- Na (72 h, time 3 day): 140.4 meq/L
- PL (72 h, time 3 day): 154 mg/dL
- RALB (72 h, time 3 day): 2.7 g/dL
- TBIL (72 h, time 3 day): 0.048 mg/dL
- TC (72 h, time 3 day): 78.4 mg/dL
- TG (72 h, time 3 day): 127.6 mg/dL
- TP (72 h, time 3 day): 5.7 g/dL
- gamma-GTP (72 h, time 3 day): 1.2 IU/L
- TERMINAL_BW ([…], time 7 day): 289.7 g
- TERMINAL_BW ([…], time 14 day): 334.8 g
- TERMINAL_BW ([…], time 28 day): 425.6 g
- APTT ([…], time 7 day): 17.6 s
- Bas ([…], time 7 day): 0%
- Eos ([…], time 7 day): 0.8%
- Fbg ([…], time 7 day): 274.8 mg/dL
- Hb ([…], time 7 day): 13.7 g/dL
- Ht ([…], time 7 day): 42%
- Lym ([…], time 7 day): 77.8%
- MCH ([…], time 7 day): 21.4 pg
- MCHC ([…], time 7 day): 32.6%
- MCV ([…], time 7 day): 65.7 fL
- Mono ([…], time 7 day): 2.6%
- Neu ([…], time 7 day): 18.2%
- PT ([…], time 7 day): 14.1 s
- Plat ([…], time 7 day): 131.7 x10_4/uL
- RBC ([…], time 7 day): 640.6 x10_4/ul
- Ret ([…], time 7 day): 5.6%
- WBC ([…], time 7 day): 92.1 x10_2/uL
- APTT ([…], time 14 day): 16.9 s
- Bas ([…], time 14 day): 0%
- Eos ([…], time 14 day): 1%
- Fbg ([…], time 14 day): 272 mg/dL
- Hb ([…], time 14 day): 14.6 g/dL
- Ht ([…], time 14 day): 44.5%
- Lym ([…], time 14 day): 78.4%
- MCH ([…], time 14 day): 20.3 pg
- MCHC ([…], time 14 day): 32.6%
- MCV ([…], time 14 day): 62.3 fL
- Mono ([…], time 14 day): 2.2%
- Neu ([…], time 14 day): 18%
- PT ([…], time 14 day): 14.8 s
- Plat ([…], time 14 day): 122.4 x10_4/uL
- RBC ([…], time 14 day): 715.4 x10_4/ul
- Ret ([…], time 14 day): 3.8%
- WBC ([…], time 14 day): 90.5 x10_2/uL
- APTT ([…], time 28 day): 18.3 s
- Bas ([…], time 28 day): 0%
- Eos ([…], time 28 day): 1.6%
- Fbg ([…], time 28 day): 259 mg/dL
- Hb ([…], time 28 day): 15.5 g/dL
- Ht ([…], time 28 day): 45.1%
- Lym ([…], time 28 day): 77.4%
- MCH ([…], time 28 day): 20 pg
- MCHC ([…], time 28 day): 34.3%
- MCV ([…], time 28 day): 58.3 fL
- Mono ([…], time 28 day): 1.8%
- Neu ([…], time 28 day): 18.4%
- PT ([…], time 28 day): 14.8 s
- Plat ([…], time 28 day): 93.9 x10_4/uL
- RBC ([…], time 28 day): 773 x10_4/ul
- Ret ([…], time 28 day): 2.2%
- WBC ([…], time 28 day): 79.4 x10_2/uL
- KIDNEY_L ([…], time 7 day): 1.2 g
- KIDNEY_R ([…], time 7 day): 1.2 g
- KIDNEY_TOTAL ([…], time 7 day): 2.4 g
- KIDNEY_L ([…], time 14 day): 1.3 g
- KIDNEY_R ([…], time 14 day): 1.3 g
- KIDNEY_TOTAL ([…], time 14 day): 2.6 g
- KIDNEY_L ([…], time 28 day): 1.4 g
- KIDNEY_R ([…], time 28 day): 1.4 g
- KIDNEY_TOTAL ([…], time 28 day): 2.8 g
- LIVER ([…], time 7 day): 13.8 g
- LIVER ([…], time 14 day): 13.9 g
- LIVER ([…], time 28 day): 17 g
- A/G ([…], time 7 day): 0.9
- ALP ([…], time 7 day): 1839.2 IU/L
- ALT ([…], time 7 day): 44.4 IU/L
- AST ([…], time 7 day): 69.4 IU/L
- BUN ([…], time 7 day): 15.4 mg/dL
- CRE ([…], time 7 day): 0.2 mg/dL
- Ca ([…], time 7 day): 11.3 mg/dL
- Cl ([…], time 7 day): 106.4 meq/L
- DBIL ([…], time 7 day): 0.024 mg/dL
- GLC ([…], time 7 day): 188.8 mg/dL
- IP ([…], time 7 day): 7.5 mg/dL
- K ([…], time 7 day): 3.9 meq/L
- LDH ([…], time 7 day): 64.2 IU/L
- Na ([…], time 7 day): 143.2 meq/L
- PL ([…], time 7 day): 162.2 mg/dL
- RALB ([…], time 7 day): 2.7 g/dL
- TBIL ([…], time 7 day): 0.052 mg/dL
- TC ([…], time 7 day): 79 mg/dL
- TG ([…], time 7 day): 140.4 mg/dL
- TP ([…], time 7 day): 5.9 g/dL
- gamma-GTP ([…], time 7 day): 1.2 IU/L
- A/G ([…], time 14 day): 0.8
- ALP ([…], time 14 day): 1466.2 IU/L
- ALT ([…], time 14 day): 37.2 IU/L
- AST ([…], time 14 day): 63.6 IU/L
- BUN ([…], time 14 day): 17.2 mg/dL
- CRE ([…], time 14 day): 0.2 mg/dL
- Ca ([…], time 14 day): 11.1 mg/dL
- Cl ([…], time 14 day): 107.2 meq/L
- DBIL ([…], time 14 day): 0.024 mg/dL
- GLC ([…], time 14 day): 187.6 mg/dL
- IP ([…], time 14 day): 6.5 mg/dL
- K ([…], time 14 day): 4.5 meq/L
- LDH ([…], time 14 day): 59 IU/L
- Na ([…], time 14 day): 143 meq/L
- PL ([…], time 14 day): 151.6 mg/dL
- RALB ([…], time 14 day): 2.7 g/dL
- TBIL ([…], time 14 day): 0.05 mg/dL
- TC ([…], time 14 day): 63.6 mg/dL
- TG ([…], time 14 day): 189.6 mg/dL
- TP ([…], time 14 day): 6 g/dL
- gamma-GTP ([…], time 14 day): 1 IU/L
- A/G ([…], time 28 day): 0.8
- ALP ([…], time 28 day): 1089.6 IU/L
- ALT ([…], time 28 day): 36.4 IU/L
- AST ([…], time 28 day): 60 IU/L
- BUN ([…], time 28 day): 17 mg/dL
- CRE ([…], time 28 day): 0.2 mg/dL
- Ca ([…], time 28 day): 11 mg/dL
- Cl ([…], time 28 day): 104.4 meq/L
- DBIL ([…], time 28 day): 0.018 mg/dL
- GLC ([…], time 28 day): 193.4 mg/dL
- IP ([…], time 28 day): 6.2 mg/dL
- K ([…], time 28 day): 3.7 meq/L
- LDH ([…], time 28 day): 47.2 IU/L
- Na ([…], time 28 day): 143.8 meq/L
- PL ([…], time 28 day): 141.4 mg/dL
- RALB ([…], time 28 day): 2.7 g/dL
- TBIL ([…], time 28 day): 0.054 mg/dL
- TC ([…], time 28 day): 66 mg/dL
- TG ([…], time 28 day): 136.6 mg/dL
- TP ([…], time 28 day): 6.3 g/dL
- gamma-GTP ([…], time 28 day): 1 IU/L
